According to US10034886B2, “GLP-1 receptor modulators” (Celgene International II SÀRL, priority 2014, dated 2018):

Target: T1, GLP-1R (Homo sapiens, UniProt P43220)
T1 construct: host or cells: GLP-1R CRE-bla CHO-K1 cells
Experiment: EC20 GLP-1(9-36) PAM cAMP assay: dose response of compound in the presence of fixed concentration of GLP-1(9-36)
Assay type: cell-based
Conditions: EC20 GLP-1(9-36) PAM EC50, dose response of compound in presence of fixed concentration of GLP-1(9-36), GLP-1R CRE-bla CHO-K1 cells
How it was run: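 GLP-1R CRE-bla CHO-K1 cells treated 30 min at 37 °C with 12-point compound dose response plus fixed EC20 GLP-1(9-36), with IBMX, in HBSS/HEPES/0.1% BSA pH 7.4. Total cAMP measured by luminescent detection against standard curve; EC50 and Emax from non-linear regression.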

T1 sequence (P43220 24-463): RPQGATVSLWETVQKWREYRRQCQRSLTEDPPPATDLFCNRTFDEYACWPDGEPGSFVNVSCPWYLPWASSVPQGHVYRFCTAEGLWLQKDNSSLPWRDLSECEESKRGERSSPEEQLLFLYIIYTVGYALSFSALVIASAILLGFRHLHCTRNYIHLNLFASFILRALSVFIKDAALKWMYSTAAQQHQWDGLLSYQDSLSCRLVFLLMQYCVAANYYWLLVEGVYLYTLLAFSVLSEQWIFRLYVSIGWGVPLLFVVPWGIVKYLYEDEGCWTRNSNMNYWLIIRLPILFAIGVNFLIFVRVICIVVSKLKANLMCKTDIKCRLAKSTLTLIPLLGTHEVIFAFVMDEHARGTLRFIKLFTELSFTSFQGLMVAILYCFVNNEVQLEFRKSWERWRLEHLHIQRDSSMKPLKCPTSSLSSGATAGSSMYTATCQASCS
T1 sequence (P01275 100-127 partner limits assumed): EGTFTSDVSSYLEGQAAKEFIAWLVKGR

SMILES | EC50
CCCCCCCOc1ccc(-c2cnc(-c3ccc(C[C@H](NC(=O)c4ccc(C(C)(C)C)s4)C(=O)N4CC[C@H](c5nnn[nH]5)C4)cc3)nc2)cc1 [Compound 886] | 800 to 2500 nM

Same assay, conditions: dose response of compound in presence of fixed concentration of GLP-1(9-36), GLP-1R CRE-bla CHO-K1 cells, read-out: EC20 GLP-1(9-36) PAM EC50

SMILES | EC50
CCCCCCCOc1ccc(-c2cnc(-c3ccc(C[C@H](NC(=O)c4ccc(C(C)C)cc4)C(=O)N4CC[C@H](C(=O)O)C4)cc3)nc2)cc1 [Compound 844] | 800 to 2500 nM
CCCCCCCOc1ccc(-c2cnc(-c3ccc(C[C@H](NC(=O)c4ccc(OC)cc4)C(=O)N4CC[C@H](C(=O)O)C4)cc3)nc2)cc1 [Compound 846] | 2500 to 5000 nM
CCCCCCCOc1ccc(-c2cnc(-c3ccc(C[C@H](NC(=O)c4ccc(OCC)cc4)C(=O)N4CC[C@H](C(=O)O)C4)cc3)nc2)cc1 [Compound 848] | 2500 to 5000 nM
CCCCCCCOc1ccc(-c2cnc(-c3ccc(C[C@H](NC(=O)c4ccc(OC(C)C)cc4)C(=O)N4CC[C@H](C(=O)O)C4)cc3)nc2)cc1 [Compound 849] | 2500 to 5000 nM
CCCCCCCOc1ccc(-c2cnc(-c3ccc(C[C@H](NC(=O)c4ccc(CCCC)cc4)C(=O)N4CC[C@H](C(=O)O)C4)cc3)nc2)cc1 [Compound 850] | 2500 to 5000 nM
CCCCCCCOc1ccc(-c2cnc(-c3ccc(C[C@H](NC(=O)c4ccc(CC(C)C)cc4)C(=O)N4CC[C@H](C(=O)O)C4)cc3)nc2)cc1 [Compound 851] | 2500 to 5000 nM
CCCCCCCOc1ccc(-c2cnc(-c3ccc(C[C@H](NC(=O)c4ccc(C(C)(C)C)cc4OC)C(=O)N4CC[C@H](C(=O)O)C4)cc3)nc2)cc1 [Compound 852] | 2500 to 5000 nM
CCCCCCCOc1ccc(-c2cnc(-c3ccc(C[C@H](NC(=O)c4ccc(CCC)cc4)C(=O)N4CC[C@H](C(=O)O)C4)cc3)nc2)cc1 [Compound 853] | 800 to 2500 nM
CCCCCCCOc1ccc(-c2cnc(-c3ccc(C[C@H](NC(=O)c4ccc(CC)cc4)C(=O)N4CC[C@H](C(=O)O)C4)cc3)nc2)cc1 [Compound 855] | 800 to 2500 nM
CCCCCCCOc1ccc(-c2cnc(-c3ccc(C[C@H](NC(=O)c4cnc(C(C)(C)C)nc4)C(=O)N4CC[C@H](C(=O)O)C4)cc3)nc2)cc1 [Compound 856] | 800 to 2500 nM
CCCCCCCOc1ccc(-c2cnc(-c3ccc(C[C@H](NC(=O)c4ccc(C5CC5)cc4)C(=O)N4CC[C@H](C(=O)O)C4)cc3)nc2)cc1 [Compound 857] | 5000 to 10000 nM
CCCCCCCOc1ccc(-c2cnc(-c3ccc(C[C@H](NC(=O)c4ccc(C(C)(C)CC)cc4)C(=O)N4CC[C@H](C(=O)O)C4)cc3)nc2)cc1 [Compound 859] | 2500 to 5000 nM
CCCCCCCOc1ccc(-c2cnc(-c3ccc(C[C@H](NC(=O)c4ccc(C(C)(C)C#N)cc4)C(=O)N4CC[C@H](C(=O)O)C4)cc3)nc2)cc1 [Compound 860] | 800 to 2500 nM
CCCCCCCOc1ccc(-c2cnc(-c3ccc(C[C@H](NC(=O)c4cnn(C(C)(C)C)c4C)C(=O)N4CC[C@H](C(=O)O)C4)cc3)nc2)cc1 [Compound 861] | 2500 to 5000 nM
CCCCCCCOc1ccc(-c2cnc(-c3ccc(C[C@H](NC(=O)c4ccc(C(C)(C)C)c(OC)c4)C(=O)N4CC[C@H](C(=O)O)C4)cc3)nc2)cc1 [Compound 862] | 800 to 2500 nM
CCCCCCCOc1ccc(-c2cnc(-c3ccc(C[C@H](NC(=O)c4ccc(CCC)s4)C(=O)N4CC[C@H](C(=O)O)C4)cc3)nc2)cc1 [Compound 864] | 800 to 2500 nM
CCCCCCCOc1ccc(-c2cnc(-c3ccc(C[C@H](NC(=O)c4ccc(C5CC5)s4)C(=O)N4CC[C@H](C(=O)O)C4)cc3)nc2)cc1 [Compound 865] | 800 to 2500 nM
CCCCCCCOc1ccc(-c2cnc(-c3ccc(C[C@H](NC(=O)c4cnn(C(C)(C)C)c4)C(=O)N4CC[C@H](C(=O)O)C4)cc3)nc2)cc1 [Compound 867] | 800 to 2500 nM
CCCCCCCOc1ccc(-c2cnc(-c3ccc(C[C@H](NC(=O)c4ccc(C(C)(C)C)cc4C)C(=O)N4CC[C@H](C(=O)O)C4)cc3)nc2)cc1 [Compound 868] | 800 to 2500 nM
CCCCCCCOc1ccc(-c2cnc(-c3ccc(C[C@H](NC(=O)c4ccc(N5CCCC5)cc4)C(=O)NCCC(=O)O)cc3)nc2)cc1 [Compound 869] | 2500 to 5000 nM
CCCCCCCOc1ccc(-c2cnc(-c3ccc(C[C@H](NC(=O)c4ccc(N5CCCC5)cc4)C(=O)N[C@@H](C)C(=O)O)cc3)nc2)cc1 [Compound 870] | 800 to 2500 nM
CCCCCCCOc1ccc(-c2cnc(-c3ccc(C[C@H](NC(=O)c4ccc(C(C)(C)C)cc4)C(=O)N4CC(C(=O)O)CC4C)cc3)nc2)cc1 (stereo partly drawn) [Compound 893] | 2500 to 5000 nM

Other lines, results leading:

EC50 | SMILES
800 to 2500 nM | CCCCCCCOc1ccc(-c2cnc(-c3ccc(C[C@H](NC(=O)c4ccc(C(C)(C)C)cc4C)C(=O)N[C@H](C)C(=O)O)cc3)nc2)cc1 [Compound 843]
2500 to 5000 nM | CCCCCCCOc1ccc(-c2cnc(-c3ccc(C[C@H](NC(=O)c4ccc(C(C)C)s4)C(=O)N4CC[C@H](C(=O)O)C4)cc3)nc2)cc1 [Compound 845]
2500 to 5000 nM | CCCCCCCOc1ccc(-c2cnc(-c3ccc(C[C@H](NC(=O)c4ccc(CC(C)C)s4)C(=O)N4CC[C@H](C(=O)O)C4)cc3)nc2)cc1 [Compound 847]
800 to 2500 nM | CCCCCCCOc1ccc(-c2cnc(-c3ccc(C[C@H](NC(=O)c4ccc(CC)s4)C(=O)N4CC[C@H](C(=O)O)C4)cc3)nc2)cc1 [Compound 863]
2500 to 5000 nM | CCCCCCCOc1ccc(-c2cnc(-c3ccc(C[C@H](NC(=O)c4sc(C(C)(C)C)cc4C)C(=O)N4CC[C@H](C(=O)O)C4)cc3)nc2)cc1 [Compound 866]
2500 to 5000 nM | CCCCCCCOc1ccc(-c2cnc(-c3ccc(C[C@H](NC(=O)c4ccc(C(C)(C)C)s4)C(=O)N4C[C@@H](F)C[C@@H]4C(=O)O)cc3)nc2)cc1 [Compound 871]
800 to 2500 nM | CCCCCCCOc1ccc(-c2cnc(-c3ccc(C[C@H](NC(=O)c4ccc(C(C)(C)C)s4)C(=O)N[C@H]4C[C@@H](C(=O)O)C4)cc3)nc2)cc1 [Compound 872]
< 800 nM | CCCCCCCOc1ccc(-c2cnc(-c3ccc(C[C@H](NC(=O)c4ccc(C(C)(C)C)s4)C(=O)N4CC(OC)(C(=O)O)C4)cc3)nc2)cc1 [Compound 873]
800 to 2500 nM | CCCCCCCOc1ccc(-c2cnc(-c3ccc(C[C@H](NC(=O)c4ccc(C(C)(C)C)s4)C(=O)N4CC(C)(C(=O)O)C4)cc3)nc2)cc1 [Compound 874]
800 to 2500 nM | CCCCCCCOc1ccc(-c2cnc(-c3ccc(C[C@H](NC(=O)c4ccc(C(C)(C)C)s4)C(=O)N[C@H]4C[C@H](C(=O)O)C4)cc3)nc2)cc1 [Compound 875]
800 to 2500 nM | CCCCCCCOc1ccc(-c2cnc(-c3ccc(C[C@H](NC(=O)c4ccc(C(C)(C)C)s4)C(=O)NC4(C(=O)O)CC(F)(F)C4)cc3)nc2)cc1 [Compound 876]
800 to 2500 nM | CCCCCCCOc1ccc(-c2cnc(-c3ccc(C[C@H](NC(=O)c4ccc(C(C)(C)C)s4)C(=O)N4CC5(CC(C(=O)O)C5)C4)cc3)nc2)cc1 [Compound 877]
< 800 nM | CCCCCCCOc1ccc(-c2cnc(-c3ccc(C[C@H](NC(=O)c4ccc(C(C)(C)C)s4)C(=O)N4CC(F)(C(=O)O)C4)cc3)nc2)cc1 [Compound 878]
2500 to 5000 nM | CCCCCCCOc1ccc(-c2cnc(-c3ccc(C[C@H](NC(=O)c4ccc(C(C)(C)C)s4)C(=O)NC[C@H]4C[C@H](N)C4)cc3)nc2)cc1 [Compound 879]
< 800 nM | CCCCCCCOc1ccc(-c2cnc(-c3ccc(C[C@H](NC(=O)c4ccc(C(C)(C)C)s4)C(=O)NC(C(=O)O)C(O)C(C)C)cc3)nc2)cc1 (stereo partly drawn) [Compound 880]
800 to 2500 nM | CCCCCCCOc1ccc(-c2cnc(-c3ccc(C[C@H](NC(=O)c4ccc(C(C)(C)C)s4)C(=O)N[C@H](C(=O)O)[C@H](O)C(C)C)cc3)nc2)cc1 [Compound 881]
800 to 2500 nM | CCCCCCCOc1ccc(-c2cnc(-c3ccc(C[C@H](NC(=O)c4ccc(C(C)(C)C)s4)C(=O)NC(C(=O)O)C(O)C(F)(F)F)cc3)nc2)cc1 (stereo partly drawn) [Compound 882]
5000 to 10000 nM | CCCCCCCOc1ccc(-c2cnc(-c3ccc(C[C@H](NC(=O)c4ccc(C(C)(C)C)s4)C(=O)N[C@H](C(=O)O)[C@@H](N)c4ccccc4)cc3)nc2)cc1 [Compound 883]
800 to 2500 nM | CCCCCCCOc1ccc(-c2cnc(-c3ccc(C[C@H](NC(=O)c4ccc(C(C)(C)C)s4)C(=O)N4CC[C@H](C(=O)NS(C)(=O)=O)C4)cc3)nc2)cc1 [Compound 884]
5000 to 10000 nM | CCCCCCCOc1ccc(-c2cnc(-c3ccc(C[C@H](NC(=O)c4ccc(C(C)(C)C)s4)C(=O)N4CC[C@H](C(=O)Nc5nnn[nH]5)C4)cc3)nc2)cc1 [Compound 885]
< 800 nM | CCCCCCCOc1ccc(-c2cnc(-c3ccc(C[C@H](NC(=O)c4ccc(C(C)(C)C)s4)C(=O)N4CC[C@H](C(=O)NS(=O)(=O)CC(F)(F)F)C4)cc3)nc2)cc1 [Compound 887]
800 to 2500 nM | CCCCCCCOc1ccc(-c2cnc(-c3ccc(C[C@H](NC(=O)c4ccc(C(C)(C)C)s4)C(=O)NC(C(=O)O)C(O)c4cccs4)cc3)nc2)cc1 (stereo partly drawn) [Compound 888]
800 to 2500 nM | CCCCCCCOc1ccc(-c2cnc(-c3ccc(C[C@H](NC(=O)c4ccc(C(C)(C)C)s4)C(=O)N[C@@H](C(=O)O)C(C)C)cc3)nc2)cc1 [Compound 889]
800 to 2500 nM | CCCCCCCOc1ccc(-c2cnc(-c3ccc(C[C@H](NC(=O)c4ccc(C(C)(C)C)s4)C(=O)NC(C(=O)O)C(OC)c4ccccc4)cc3)nc2)cc1 (stereo partly drawn) [Compound 890]
800 to 2500 nM | CCCCCCCOc1ccc(-c2cnc(-c3ccc(C[C@H](NC(=O)c4ccc(C(C)(C)C)s4)C(=O)N4CCNCC4C(=O)O)cc3)nc2)cc1 (stereo partly drawn) [Compound 891]
< 800 nM | CCCCCCCOc1ccc(-c2cnc(-c3ccc(C[C@H](NC(=O)c4ccc(C(C)(C)C)s4)C(=O)N4CC(C(=O)O)CC4C)cc3)nc2)cc1 (stereo partly drawn) [Compound 892]
5000 to 10000 nM | CCCCCCCOc1ccc(-c2cnc(-c3ccc(C[C@H](NC(=O)c4ccc(C(C)(C)C)s4)C(=O)NCC4(O)CCN(C)C4)cc3)nc2)cc1 (stereo partly drawn) [Compound 894]
< 800 nM | CCCCCCCOc1ccc(-c2cnc(-c3ccc(C[C@H](NC(=O)c4ccc(C(C)(C)C)s4)C(=O)N[C@@H](c4n[nH]c(=S)o4)[C@@H](C)O)cc3)nc2)cc1 [Compound 895]
